According to ChEMBL document CHEMBL3046034, “Enzyme inhibitors to increase poly-3-hydroxybutyrate production by transgenic tobacco” (2002):
Active and inactive are the calls of the source. No cut-off for these calls is given here.

Legend:
Nicotiana tabacum [1] = experiment: Increase of leaf dry weight in BC3 transgenic Nicotiana tabacum (tobacco) at 10 uM sprayed on five leaf stage plant once in a week measured after 1 week; type: functional, organism-based
Nicotiana tabacum [2] = experiment: Increase of PHA synthase level in rCAB8 transgenic Nicotiana tabacum (tobacco) at 50 uM sprayed on five leaf stage plant once in a week measured after 2 weeks by immunoblot analysis; type: functional, organism-based
Nicotiana tabacum [3] = experiment: Increase of poly-3-hydroxybutyrate production in rCAB8 transgenic Nicotiana tabacum (tobacco) at 50 uM sprayed on five-leaf stage plant once in a week measured after 1 week relative to control; type: functional
Nicotiana tabacum [4] = experiment: Increase of poly-3-hydroxybutyrate production in BC3 transgenic Nicotiana tabacum (tobacco) at 10 uM sprayed on five-leaf stage plant once in a week measured after 1 week relative to control; type: functional
Nicotiana tabacum [5] = experiment: Increase of PHA synthase level in BC3 transgenic Nicotiana tabacum (tobacco) at 10 uM sprayed on five leaf stage plant once in a week measured after 2 weeks by immunoblot analysis; type: functional, organism-based
Nicotiana tabacum [6] = experiment: Increase of poly-3-hydroxybutyrate production in rCAB8 transgenic Nicotiana tabacum (tobacco) at 50 uM sprayed on five-leaf stage plant once in a week measured after 2 weeks relative to control; type: functional
Nicotiana tabacum [7] = experiment: Increase of leaf dry weight in rCAB8 transgenic Nicotiana tabacum (tobacco) at 10 to 250 uM sprayed on five leaf stage plant once in a week measured after 2 weeks; type: functional, organism-based
Nicotiana tabacum [8] = experiment: Increase of poly-3-hydroxybutyrate production in BC3 transgenic Nicotiana tabacum (tobacco) at 2 to 50 uM sprayed on five-leaf stage plant once in a week measured after 2 weeks relative to control; type: functional
Nicotiana tabacum [9] = experiment: Increase of leaf dry weight in BC3 transgenic Nicotiana tabacum (tobacco) sprayed on five-leaf stage plant once in a week measured after 2 weeks; type: functional, organism-based
Nicotiana tabacum [10] = experiment: Increase of poly-3-hydroxybutyrate production in rCAB8 transgenic Nicotiana tabacum (tobacco) plastids at 50 uM sprayed on five-leaf stage plant once in a week measured after 2 weeks relative to cytosol; type: functional
Nicotiana tabacum [11] = experiment: Increase of poly-3-hydroxybutyrate production in BC3 transgenic Nicotiana tabacum (tobacco) plastids at 10 uM sprayed on five-leaf stage plant once in a week measured after 2 weeks relative to cytosol; type: functional
Nicotiana tabacum [12] = experiment: Increase of poly-3-hydroxybutyrate production in BC3 transgenic Nicotiana tabacum (tobacco) at 10 uM sprayed on five leaf stage plant once in a week measured after 2 weeks relative to control; type: functional
Nicotiana tabacum [13] = experiment: Increase of poly-3-hydroxybutyrate production in rCAB8 transgenic Nicotiana tabacum (tobacco) plastids at 0.1 to 10 uM sprayed on five-leaf stage plant once in a week measured after 2 weeks relative to control; type: functional, organism-based
Nicotiana tabacum [14] = experiment: Increase of poly-3-hydroxybutyrate production in BC3 transgenic Nicotiana tabacum (tobacco) plastids at 10 uM sprayed on five-leaf stage plant once in a week measured after 2 weeks relative to control; type: functional, organism-based
Nicotiana tabacum [15] = experiment: Increase of poly-3-hydroxybutyrate production in BC3 transgenic Nicotiana tabacum (tobacco) plastids at 1 uM sprayed on five-leaf stage plant once in a week measured after 2 weeks relative to control; type: functional

Structure (SMILES)	Activity (Nicotiana tabacum [1])	Activity (Nicotiana tabacum [2])	Activity (Nicotiana tabacum [3])	Activity (Nicotiana tabacum [4])	Activity (Nicotiana tabacum [5])	Activity (Nicotiana tabacum [6])	Activity (Nicotiana tabacum [7])	Activity (Nicotiana tabacum [8])	Activity (Nicotiana tabacum [9])	fold change (FC) (Nicotiana tabacum [10])	fold change (FC) (Nicotiana tabacum [11])	Activity (Nicotiana tabacum [12])	Activity (Nicotiana tabacum [13])	Activity (Nicotiana tabacum [14])	Activity (Nicotiana tabacum [15])
CC(Oc1ccc(Oc2cnc3cc(Cl)ccc3n2)cc1)C(=O)O (stereo not given) [QUIZALOFOP]	Active	Active	120%	150%	Active	150%	Active	170%	Dose-dependent effect	2.5	2.5	170%	–	–	–
CC[C@H](C)C(=O)O[C@H]1CCC=C2C=C[C@H](C)[C@H](CC[C@@H]3C[C@@H](O)CC(=O)O3)[C@H]21 [MEVASTATIN]	–	–	–	–	–	–	–	–	–	–	–	–	Active	inactive	192%
